The text below walks through data of paper PMC6003237 (Bioorganic & medicinal chemistry, 2017).

Series [1] relates to mice. The settings on record: for Effects/observations at higher doses / MTD (nmol injected): IV injection; for MTD (nmol injected): mice of average body weight 25 g.
The test system of series [2] is NCI 60 cancer cell screen. The settings on record: ref not given; cited from earlier work.
For series [3], the system named is PC-3 xenografts. Particulars: dose of 8 mg/kg, earlier studies, ref not given; cited from earlier work.
Series [4] concerns different cancer cell lines. Particulars: cancer cell lines; ref [6]–[9]; cited from earlier work.
The test system of series [5] is DPPIV. The settings on record: activation by DPPIV; ref [9]; cited from earlier work.
The conditions of series [6]: human, 200 µM.
Series [7] is described as follows: Stability / hydrolysis in 10% FBS.
A short description of series [8]: Hydrolysis in LNCaP conditioned media. Particulars: serum containing LNCaP conditioned media, 37 °C, 24–72 h.
In series [9] the target is Purified native human prostate specific antigen (PSA) (Homo sapiens, UniProt P07288). Description: PSA-mediated hydrolysis of prodrug ex-vivo. It counts as biochemical.
For series [10] the following is noted: PBS.
Series [11] relates to LNCaP. The series can be described thus: MTT cytotoxicity in PSA producing LNCaP cells. The format is cell-based, human.
Series [12] relates to PC3. Description: MTT cytotoxicity in non-PSA-producing PC3 cells. The format is cell-based, human.
Series [13] has as its system CWR22Rv1. The series can be described thus: MTT cytotoxicity in low PSA-producing CWR22Rv1 cells. The format is cell-based, human.
Series [14] can be described thus: Stability in human plasma. It counts as in vitro ADME. The settings on record: 48 h.
The test system of series [15] is mice. Particulars: earlier studies of the authors, ref not given; cited from earlier work.

The structures appear in SMILES notation. Values joined by “and” are separate entries in the source; they are usually repeats but may differ in a detail not shown here. Identical values can stand only once. Like-named read-outs stand apart in the source and are kept apart here. *1 amine or outer side, *2 acyl side, *3 side chain or, on linkers, in order; H or OH if unused. Where a SMILES comes first, the peptide text is derived from it. [ ]: non-standard residue; d: D form. The star is where a group is joined. Emetine(N2') = CC[C@H]1CN2CCc3cc(OC)c(OC)cc3[C@@H]2C[C@@H]1C[C@@H]1c2cc(OC)c(OC)cc2CCN1*; PABC = O=C(OCc1ccc(N[*:1])cc1)[*:2]

Sequence of Purified native human prostate specific antigen (PSA) (P07288 25-261): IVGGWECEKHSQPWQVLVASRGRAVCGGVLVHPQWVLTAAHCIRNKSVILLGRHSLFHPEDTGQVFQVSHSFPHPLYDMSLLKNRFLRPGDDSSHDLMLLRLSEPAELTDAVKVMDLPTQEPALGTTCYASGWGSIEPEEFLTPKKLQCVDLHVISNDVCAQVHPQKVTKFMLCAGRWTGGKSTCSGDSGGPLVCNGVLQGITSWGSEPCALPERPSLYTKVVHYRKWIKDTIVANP

In the case of `CC[C@H]1CN2CCc3cc(OC)c(OC)cc3[C@@H]2C[C@@H]1C[C@H]1NCCc2cc(OC)c(OC)cc21` [Emetine, emetine, reference compound], the “Effects/observations at higher doses” value in series [1] (mice) was “Convulsion and death within 1 min of injection at 16 mg/kg”. In series [1], the “MTD (nmol injected)” value is recorded as 416 nmol. Besides, the “dose producing acute toxicity (convulsions and death)” value in series [1] (single IV injection, mice) stood at 16 mg/kg. Besides, the GI50 in [2] was 27 nM. Further, the therapeutic efficacy entry in [3] is “no therapeutic efficacy”.
On to `CC[C@H]1CN2CCc3cc(OC)c(OC)cc3[C@@H]2C[C@@H]1C[C@@H]1c2cc(OC)c(OC)cc2CCN1C(=O)OCc1ccc(NC(=O)[C@@H]2CCCN2C(=O)[C@H](C)N)cc1` [compound 10, 4-((S)-1-(L-Alanyl)pyrrolidine-2-carboxamido)benzyl (R)-1-(((2R,3R,11bS)-3-ethyl-9,10-dimethoxy-1,3,4,6,7,11b-hexahydro-2H-pyrido[2,1-a]isoquinolin-2-yl)methyl)-6,7-dimethoxy-3,4-dihydroisoquinoline-2(1H)-carboxylate], for which the “in vitro cytotoxicity compared to emetine” value in series [4] is listed as “equipotency with emetine”. The “Effects/observations at higher doses” value in [1] (mice) was “Convulsion and death at higher doses”. In series [1], the “MTD (nmol injected)” value was 1003 nmol and 1002 nmol. In addition, the “time for efficient quantitative release of emetine” value in series [5] is on record as at most 24 h.
For the molecule `CC[C@H]1CN2CCc3cc(OC)c(OC)cc3[C@@H]2C[C@@H]1C[C@@H]1c2cc(OC)c(OC)cc2CCN1C(=O)OCc1ccc(NC(=O)[C@H](CC(C)C)NC(=O)[C@@H](N)CO)cc1` [compound 14, 4-((S)-2-((S)-2-Amino-3-hydroxypropanamido)-4-methyl-pentanamido) benzyl (R)-1-(((2R,3R,11bS)-3-ethyl-9,10-dimethoxy-1,3,4,6,7,11b-hexahydro-2H-pyrido[2,1-a]isoquinolin-2-yl)methyl)-6,7-dimethoxy-3,4-dihydroisoquinoline-2(1H)-carboxylate], the “% Ser-Leu-PABC-Emetine, 14 after 72 h incubation” value in series [6] is given as 100%; in series [10] (37 °C, 72 h), 100%. The “hydrolysis to emetine or any product (LCMS)” value is “did not result in its hydrolysis to emetine or any product of hydrolysis” in [7] (10% FBS containing media, 37 °C, 24–72 h); “did not result in its hydrolysis to emetine or any product of hydrolysis” in [8]; “did not result in its hydrolysis to emetine or any product of hydrolysis” in series [10] (37 °C, 24–72 h). Also, the “Effects/observations at higher doses” value in series [1] (mice) was “Toxic effect was observed at higher doses”. In addition, the “MTD (nmol injected)” value in [1] is recorded as 1541 nmol. In addition, the “% Emetine after 72 h incubation” value is reported as 0.0% in [9] (Purified PSA, 37 °C, 72 h) and 0.0% in series [10] (37 °C, 72 h). In addition, the “hydrolysis / conversion to emetine on incubation with purified PSA (LCMS)” value in series [9] (purified PSA, 37 °C, 24–72 h) is recorded as “not observed”. In addition, the “cytotoxicity compared to emetine” value in series [11] and in [12] was “comparable to emetine” throughout. Besides, the IC50 in [11] (Homo sapiens, LNCaP, 72 h) was below 100 nM; in series [12] (Homo sapiens, PC-3, 72 h), below 100 nM.
Consider `CC[C@@H]1C[C@@H](C[C@@H]2c3cc(OC)c(OC)cc3CCN2C(=O)OCc2ccc(NC(=O)[C@H](CC(C)C)NC(=O)[C@H](CO)NC(C)=O)cc2)[C@H]2c3cc(OC)c(OC)cc3CCN2C1` [compound 15, 4-((S)-2-((S)-2-Acetamido-3-hydroxypropanamido)-4-methyl-pentanamido) benzyl (R)-1-(((2R,3R,11bS)-3-ethyl-9,10-dimethoxy-1,3,4,6,7,11b-hexahydro-2H-pyrido[2,1-a]isoquinolin-2-yl)methyl)-6,7-dimethoxy-3,4-dihydroisoquinoline-2(1H)-carboxylate], for which the “concentration at which significant cytotoxicity was demonstrated” value in [11] (LNCaP (Fig. 3A)) and in [12] (PC3 (Fig. 3B)) was 10,000 nM each time.
In the case of `CC[C@H]1CN2CCc3cc(OC)c(OC)cc3[C@@H]2C[C@@H]1C[C@@H]1c2cc(OC)c(OC)cc2CCN1C(=O)OCc1ccc(NC(=O)[C@H](CC(C)C)NC(=O)[C@H](CO)NC(=O)[C@H](CCC(N)=O)NC(=O)[C@H](CC(C)C)NC(=O)[C@H](CCCCN)NC(=O)[C@H](CO)NC(=O)[C@H](CO)NC(=O)[C@H](Cc2c[nH]cn2)NC(C)=O)cc1` [compound 16] (Ac-HSSKLQSL[PABC]-{Emetine(N2')}), the “% of 14 observed after incubation with PSA (LCMS)” value in series [9] (purified PSA, 2 h) is reported as 20%; in series [9] (purified PSA, 6 h), 50%; in series [9] (purified PSA, 20 h) it was 98%. The “IC50 fold higher than the IC50 of emetine” value in [13] and in series [11] (LNCaP) was “about 2 fold” each time.
Take `CC[C@H]1CN2CCc3cc(OC)c(OC)cc3[C@@H]2C[C@@H]1C[C@@H]1c2cc(OC)c(OC)cc2CCN1C(=O)OCc1ccc(NC(=O)[C@H](CC(C)C)NC(=O)[C@H](CO)NC(=O)[C@H](CCC(N)=O)NC(=O)[C@H](CC(C)C)NC(=O)[C@H](CCCCN)NC(=O)[C@H](CO)NC(=O)[C@H](CO)NC(=O)[C@H](Cc2cnc[nH]2)NC(C)=O)cc1` [compound 16] (Ac-HSSKLQSL[PABC]-{Emetine(N2')}): the “stability (cleavage, hydrolysis/decomposition)” value in [7] (10% FBS, five-day incubation at 37 °C) is “no sign of cleavage or any form of hydrolysis/decomposition was detectable”. Besides, the “observation at the MTD” value in series [1] (25 mg/kg (402 nmol) IV) is recorded as “acute distress followed by recovery within an hour of injection”. Also, the “Effects/observations at higher doses” value in series [1] (mice) is “Convulsion started about 1 min post injection at higher doses”. Also, the “MTD (nmol injected)” value in [1] was 402 nmol. Moreover, in series [1] (single IV injection, mice), the “dose producing acute toxicity (convulsions and death)” value was 50 mg/kg; the “dose producing acute toxicity (convulsions and death), nmol” value came to 804 nmol. Also, the “stability in human plasma (detection of 14 or emetine)” value in series [14] is “Neither precursor 14 nor emetine was detected”. In series [10] (five-day incubation at 37 °C), the “stability (cleavage, hydrolysis/decomposition)” value is reported as “no sign of cleavage or any form of hydrolysis/decomposition was detectable”. In series [12] (PC3 vs CWR22Rv1 and LNCaP, from IC50), the “times less cytotoxic in non-PSA producing cells than in PSA producing cells” value was 7–9 times.
On to `CC[C@H]1CN2CCc3cc(OC)c(OC)cc3[C@@H]2C[C@@H]1C[C@@H]1c2cc(OC)c(OC)cc2CCN1C(=O)/C(C)=C(/C)C(=O)O` [compound 21], for which the “Effects/observations at higher doses” value in series [1] (mice) is listed as 32 mg/kg (1318 nmol) is toxic like emetine. For the same molecule, in series [15], the lethal dose is on record as 32 mg/kg.

As usually defined, the GI50 is the concentration that inhibits growth by half. As usually defined, the IC50 is the midpoint of a concentration-inhibition curve.
